Assay [1] deals with Mitogen-activated protein kinase 9 (Homo sapiens, UniProt P45984). The assay is described as follows: Inhibition of JNK2 (unknown origin) at 1 uM by Ambit Kinomescan binding assay relative to control.
The target in assay [2] is Ephrin type-A receptor 2 (Homo sapiens, UniProt P29317). The assay is described as follows: Inhibition of EphA2 ACT labeling site in human A-375 cells at 0.05 uM by KiNativ Profiling analysis relative to control. The assay is classed as cell-based.
Assay [3] deals with Serine/threonine-protein kinase Nek6 (Homo sapiens) (UniProt Q9HC98). The assay is described as follows: Inhibition of NEK6 (unknown origin) at 1 uM by Ambit Kinomescan binding assay relative to control; values are per cent of control.
Assay [4] has as its target T1, Mitogen-activated protein kinase kinase kinase 7 (Homo sapiens) (UniProt O43318).
T1 sequence (whole entry): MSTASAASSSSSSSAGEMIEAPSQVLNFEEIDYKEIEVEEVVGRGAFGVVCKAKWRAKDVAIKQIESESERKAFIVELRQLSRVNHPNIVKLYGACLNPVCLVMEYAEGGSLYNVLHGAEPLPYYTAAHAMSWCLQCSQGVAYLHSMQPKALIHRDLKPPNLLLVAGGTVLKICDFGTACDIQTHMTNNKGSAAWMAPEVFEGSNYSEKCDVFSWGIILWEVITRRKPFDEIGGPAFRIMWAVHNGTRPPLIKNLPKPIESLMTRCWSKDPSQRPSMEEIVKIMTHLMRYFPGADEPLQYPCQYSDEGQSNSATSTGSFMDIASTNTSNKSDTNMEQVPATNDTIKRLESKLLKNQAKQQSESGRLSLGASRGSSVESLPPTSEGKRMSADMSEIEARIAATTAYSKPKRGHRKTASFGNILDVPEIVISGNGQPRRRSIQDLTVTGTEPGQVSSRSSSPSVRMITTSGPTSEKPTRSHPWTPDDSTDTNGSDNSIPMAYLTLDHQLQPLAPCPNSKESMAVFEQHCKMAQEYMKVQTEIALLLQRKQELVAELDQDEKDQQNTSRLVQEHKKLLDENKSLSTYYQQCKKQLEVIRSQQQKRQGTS
The assay is described as follows: Inhibition of TAK1 (unknown origin) at 1 uM by Ambit Kinomescan binding assay relative to control; values are per cent of control.

Assay [5] has as its target Tyrosine-protein kinase Fgr (Homo sapiens) (UniProt P09769). Briefly: Inhibition of FGR (unknown origin) at 10 uM by Ambit Kinomescan binding assay relative to control.
Assay [6] deals with Serine/threonine-protein kinase PLK3 (Homo sapiens) (UniProt Q9H4B4). Briefly: Inhibition of PLK3 (unknown origin) at 10 uM by Ambit Kinomescan binding assay.
Assay [7] deals with T2, Serine/threonine-protein kinase D3 (Homo sapiens) (UniProt O94806).
T2 sequence (whole entry): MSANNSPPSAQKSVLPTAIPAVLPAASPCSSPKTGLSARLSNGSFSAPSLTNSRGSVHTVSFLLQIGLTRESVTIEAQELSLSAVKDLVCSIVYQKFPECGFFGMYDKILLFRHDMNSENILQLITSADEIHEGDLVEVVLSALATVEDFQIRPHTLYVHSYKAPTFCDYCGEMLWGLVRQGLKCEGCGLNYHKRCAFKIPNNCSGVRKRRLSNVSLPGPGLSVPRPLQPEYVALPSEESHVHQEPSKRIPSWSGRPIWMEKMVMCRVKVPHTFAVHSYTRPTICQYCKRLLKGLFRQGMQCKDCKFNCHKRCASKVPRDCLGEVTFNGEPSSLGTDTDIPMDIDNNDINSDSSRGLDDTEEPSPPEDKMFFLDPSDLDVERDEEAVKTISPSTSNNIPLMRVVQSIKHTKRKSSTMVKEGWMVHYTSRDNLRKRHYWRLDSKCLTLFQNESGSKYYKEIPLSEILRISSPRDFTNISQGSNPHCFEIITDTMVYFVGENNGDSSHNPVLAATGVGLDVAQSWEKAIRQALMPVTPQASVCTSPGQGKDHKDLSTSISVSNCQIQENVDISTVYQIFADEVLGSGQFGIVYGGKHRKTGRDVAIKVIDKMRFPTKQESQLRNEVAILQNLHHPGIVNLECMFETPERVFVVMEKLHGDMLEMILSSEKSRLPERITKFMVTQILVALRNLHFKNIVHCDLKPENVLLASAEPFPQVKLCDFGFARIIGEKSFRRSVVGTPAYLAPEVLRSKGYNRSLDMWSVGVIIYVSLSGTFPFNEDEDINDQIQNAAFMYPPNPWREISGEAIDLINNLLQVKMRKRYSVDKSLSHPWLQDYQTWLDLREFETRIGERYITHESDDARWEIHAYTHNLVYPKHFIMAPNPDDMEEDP
The assay is described as follows: Inhibition of PKD3 K2 labeling site in human Huh-7 cells at 10 uM by KiNativ Profiling analysis relative to control. Type of assay: cell-based.

The target of assay [8] is Serine/threonine-protein kinase 32C (Homo sapiens) (UniProt Q86UX6). Briefly: Inhibition of YANK3 K2 labeling site in human Huh-7 cells at 10 uM by KiNativ Profiling analysis relative to control. Type of assay: cell-based.
The target in assay [9] is Dual specificity protein kinase TTK (Homo sapiens) (UniProt P33981). The assay is described as follows: Inhibition of TTK (unknown origin) at 10 uM by Ambit Kinomescan binding assay relative to control; values are per cent of control.
In assay [10] the target is T3, Scaffold protein ILK (Homo sapiens) (UniProt Q13418).
T3 sequence (whole entry): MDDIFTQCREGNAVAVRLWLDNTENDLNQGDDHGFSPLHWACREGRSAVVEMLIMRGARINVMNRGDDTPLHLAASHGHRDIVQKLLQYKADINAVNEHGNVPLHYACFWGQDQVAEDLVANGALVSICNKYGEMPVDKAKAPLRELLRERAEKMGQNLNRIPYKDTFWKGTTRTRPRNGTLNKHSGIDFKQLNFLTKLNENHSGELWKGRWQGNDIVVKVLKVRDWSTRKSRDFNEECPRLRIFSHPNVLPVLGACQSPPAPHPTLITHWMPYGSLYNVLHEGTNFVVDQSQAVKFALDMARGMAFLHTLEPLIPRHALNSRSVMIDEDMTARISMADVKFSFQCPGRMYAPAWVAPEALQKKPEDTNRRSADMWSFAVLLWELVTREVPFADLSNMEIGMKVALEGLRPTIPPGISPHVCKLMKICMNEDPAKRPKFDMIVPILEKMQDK
The assay is described as follows: Inhibition of ILK Lys1 labeling site in human Huh-7 cell lysate at 1 uM by KiNativ Profiling analysis relative to control. The assay is classed as subcellular.

The target in assay [11] is Putative phosphatidylinositol 4-kinase alpha-like protein P2 (Homo sapiens) (UniProt A4QPH2). Briefly: Inhibition of PI4KAP2 ATP labeling site in human Huh-7 cell lysate at 1 uM by KiNativ Profiling analysis relative to control. The assay is classed as subcellular.
For assay [12], the target named is Tyrosine-protein kinase ABL2 (Homo sapiens, UniProt P42684). Briefly: Inhibition of ARG ACT labeling site in human Huh-7 cells at 1 uM by KiNativ Profiling analysis relative to control. Type of assay: cell-based.
The target in assay [13] is Calcium/calmodulin-dependent protein kinase type II subunit delta (Homo sapiens) (UniProt Q13557). The assay is described as follows: Inhibition of CaMK2d Lys2 labeling site in human Huh-7 cells at 1 uM by KiNativ Profiling analysis relative to control. Type of assay: cell-based.

The source made the active and inactive calls. The rule behind the calls is not given here.

The inhibition is the relative decrease from the control value, in per cent. The term residual activity denotes what remains of the control signal, in per cent.

Sequence of Serine/threonine-protein kinase Nek6 (Homo sapiens) (Q9HC98 whole entry): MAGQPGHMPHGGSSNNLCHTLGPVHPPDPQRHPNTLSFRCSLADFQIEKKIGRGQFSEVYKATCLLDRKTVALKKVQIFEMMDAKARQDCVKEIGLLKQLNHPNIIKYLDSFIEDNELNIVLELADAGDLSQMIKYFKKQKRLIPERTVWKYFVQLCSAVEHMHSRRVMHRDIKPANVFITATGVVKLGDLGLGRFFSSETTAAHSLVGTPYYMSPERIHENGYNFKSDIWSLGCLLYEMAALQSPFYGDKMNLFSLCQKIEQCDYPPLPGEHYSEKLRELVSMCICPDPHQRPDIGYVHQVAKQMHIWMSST
Sequence of Calcium/calmodulin-dependent protein kinase type II subunit delta (Homo sapiens) (Q13557 whole entry): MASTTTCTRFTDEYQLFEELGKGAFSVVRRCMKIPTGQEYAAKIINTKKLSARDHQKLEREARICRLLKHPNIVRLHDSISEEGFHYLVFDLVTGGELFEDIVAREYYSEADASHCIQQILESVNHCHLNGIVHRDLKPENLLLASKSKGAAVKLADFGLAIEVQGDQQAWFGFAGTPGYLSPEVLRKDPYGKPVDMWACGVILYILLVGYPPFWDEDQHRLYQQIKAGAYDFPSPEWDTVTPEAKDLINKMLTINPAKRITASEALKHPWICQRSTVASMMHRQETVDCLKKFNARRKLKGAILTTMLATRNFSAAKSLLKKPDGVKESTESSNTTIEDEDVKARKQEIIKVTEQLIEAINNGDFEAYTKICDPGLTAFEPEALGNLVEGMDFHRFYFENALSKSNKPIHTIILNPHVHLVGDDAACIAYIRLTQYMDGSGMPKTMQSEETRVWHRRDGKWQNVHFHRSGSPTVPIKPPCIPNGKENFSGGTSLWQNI
Sequence of Ephrin type-A receptor 2 (P29317 whole entry): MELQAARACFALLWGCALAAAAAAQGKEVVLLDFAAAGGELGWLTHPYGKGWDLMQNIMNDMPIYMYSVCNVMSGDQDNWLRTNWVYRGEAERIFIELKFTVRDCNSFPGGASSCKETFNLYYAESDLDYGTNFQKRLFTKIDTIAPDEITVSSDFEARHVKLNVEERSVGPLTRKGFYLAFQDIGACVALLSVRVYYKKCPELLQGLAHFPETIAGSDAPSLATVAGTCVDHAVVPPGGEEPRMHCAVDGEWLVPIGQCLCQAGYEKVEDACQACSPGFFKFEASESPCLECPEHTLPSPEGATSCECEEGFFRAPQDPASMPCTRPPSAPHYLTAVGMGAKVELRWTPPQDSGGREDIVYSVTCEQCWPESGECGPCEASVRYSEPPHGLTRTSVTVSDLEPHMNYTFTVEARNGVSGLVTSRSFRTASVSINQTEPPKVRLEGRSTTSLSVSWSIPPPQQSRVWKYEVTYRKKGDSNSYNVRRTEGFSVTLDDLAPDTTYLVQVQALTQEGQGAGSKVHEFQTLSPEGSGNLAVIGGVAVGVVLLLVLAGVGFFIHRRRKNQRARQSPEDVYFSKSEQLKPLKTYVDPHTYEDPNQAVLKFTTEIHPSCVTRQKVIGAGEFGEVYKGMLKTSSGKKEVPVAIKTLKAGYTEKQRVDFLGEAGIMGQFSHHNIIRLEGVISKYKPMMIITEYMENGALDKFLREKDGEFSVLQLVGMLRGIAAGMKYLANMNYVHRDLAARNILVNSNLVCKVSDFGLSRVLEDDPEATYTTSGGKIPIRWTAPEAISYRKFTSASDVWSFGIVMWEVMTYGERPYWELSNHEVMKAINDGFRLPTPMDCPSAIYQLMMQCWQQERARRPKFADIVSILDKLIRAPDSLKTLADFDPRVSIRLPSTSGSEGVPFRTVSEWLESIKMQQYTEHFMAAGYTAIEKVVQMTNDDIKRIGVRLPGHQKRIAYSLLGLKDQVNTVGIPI
Sequence of Tyrosine-protein kinase Fgr (Homo sapiens) (P09769 2-529 limits assumed): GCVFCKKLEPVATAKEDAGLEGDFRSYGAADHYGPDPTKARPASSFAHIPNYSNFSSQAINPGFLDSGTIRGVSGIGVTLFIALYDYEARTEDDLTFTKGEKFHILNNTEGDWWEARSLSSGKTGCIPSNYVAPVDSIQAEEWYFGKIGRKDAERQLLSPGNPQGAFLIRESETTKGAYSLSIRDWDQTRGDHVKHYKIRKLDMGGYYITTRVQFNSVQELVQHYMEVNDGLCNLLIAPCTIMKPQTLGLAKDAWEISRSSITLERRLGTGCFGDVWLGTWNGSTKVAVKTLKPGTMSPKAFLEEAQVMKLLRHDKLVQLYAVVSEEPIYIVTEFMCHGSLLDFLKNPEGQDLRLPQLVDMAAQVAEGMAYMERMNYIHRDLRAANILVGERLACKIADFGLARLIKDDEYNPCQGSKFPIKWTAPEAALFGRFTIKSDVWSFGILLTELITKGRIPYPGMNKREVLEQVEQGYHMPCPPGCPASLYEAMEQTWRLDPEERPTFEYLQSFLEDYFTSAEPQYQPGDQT
Sequence of Tyrosine-protein kinase ABL2 (P42684 whole entry): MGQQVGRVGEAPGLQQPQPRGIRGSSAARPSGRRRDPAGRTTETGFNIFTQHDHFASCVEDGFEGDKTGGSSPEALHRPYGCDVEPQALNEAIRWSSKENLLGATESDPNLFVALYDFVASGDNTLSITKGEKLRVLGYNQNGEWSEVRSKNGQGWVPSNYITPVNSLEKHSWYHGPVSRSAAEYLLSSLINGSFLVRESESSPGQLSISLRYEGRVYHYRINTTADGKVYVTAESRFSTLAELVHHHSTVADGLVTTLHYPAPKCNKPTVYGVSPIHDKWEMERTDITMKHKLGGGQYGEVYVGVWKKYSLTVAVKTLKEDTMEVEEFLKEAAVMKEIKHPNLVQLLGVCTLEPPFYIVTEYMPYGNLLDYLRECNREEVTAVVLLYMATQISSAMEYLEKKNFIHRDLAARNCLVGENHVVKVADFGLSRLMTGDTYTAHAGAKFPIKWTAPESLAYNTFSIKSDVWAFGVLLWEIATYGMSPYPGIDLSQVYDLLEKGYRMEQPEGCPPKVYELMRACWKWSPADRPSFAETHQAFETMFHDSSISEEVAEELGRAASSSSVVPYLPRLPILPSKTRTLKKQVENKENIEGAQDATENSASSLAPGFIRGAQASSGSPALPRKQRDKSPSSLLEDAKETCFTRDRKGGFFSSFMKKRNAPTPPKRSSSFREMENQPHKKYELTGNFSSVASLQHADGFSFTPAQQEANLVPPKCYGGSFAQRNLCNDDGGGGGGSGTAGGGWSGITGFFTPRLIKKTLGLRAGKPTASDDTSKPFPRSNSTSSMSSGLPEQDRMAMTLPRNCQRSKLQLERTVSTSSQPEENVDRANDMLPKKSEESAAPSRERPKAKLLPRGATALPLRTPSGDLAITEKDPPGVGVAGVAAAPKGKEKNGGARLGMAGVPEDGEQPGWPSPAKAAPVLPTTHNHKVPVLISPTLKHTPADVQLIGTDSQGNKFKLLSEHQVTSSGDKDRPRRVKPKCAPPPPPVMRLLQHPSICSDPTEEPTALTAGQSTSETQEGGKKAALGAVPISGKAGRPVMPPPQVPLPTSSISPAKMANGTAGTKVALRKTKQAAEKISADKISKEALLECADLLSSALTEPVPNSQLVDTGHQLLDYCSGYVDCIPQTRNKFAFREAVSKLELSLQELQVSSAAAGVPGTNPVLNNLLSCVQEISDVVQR
Sequence of Serine/threonine-protein kinase 32C (Homo sapiens) (Q86UX6 whole entry): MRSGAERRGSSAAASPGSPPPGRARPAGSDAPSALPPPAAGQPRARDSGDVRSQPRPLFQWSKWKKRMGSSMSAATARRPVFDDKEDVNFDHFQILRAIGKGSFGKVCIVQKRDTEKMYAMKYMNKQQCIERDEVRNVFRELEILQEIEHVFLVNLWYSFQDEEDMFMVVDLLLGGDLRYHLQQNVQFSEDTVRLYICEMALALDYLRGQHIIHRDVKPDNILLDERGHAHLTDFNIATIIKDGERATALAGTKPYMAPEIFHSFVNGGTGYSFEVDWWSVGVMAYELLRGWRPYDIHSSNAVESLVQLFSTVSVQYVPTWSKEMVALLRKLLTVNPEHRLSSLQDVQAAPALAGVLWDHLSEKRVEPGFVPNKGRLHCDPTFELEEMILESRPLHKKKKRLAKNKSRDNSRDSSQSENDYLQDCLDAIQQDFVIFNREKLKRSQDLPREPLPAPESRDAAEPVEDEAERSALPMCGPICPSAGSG
Sequence of Dual specificity protein kinase TTK (Homo sapiens) (P33981 whole entry): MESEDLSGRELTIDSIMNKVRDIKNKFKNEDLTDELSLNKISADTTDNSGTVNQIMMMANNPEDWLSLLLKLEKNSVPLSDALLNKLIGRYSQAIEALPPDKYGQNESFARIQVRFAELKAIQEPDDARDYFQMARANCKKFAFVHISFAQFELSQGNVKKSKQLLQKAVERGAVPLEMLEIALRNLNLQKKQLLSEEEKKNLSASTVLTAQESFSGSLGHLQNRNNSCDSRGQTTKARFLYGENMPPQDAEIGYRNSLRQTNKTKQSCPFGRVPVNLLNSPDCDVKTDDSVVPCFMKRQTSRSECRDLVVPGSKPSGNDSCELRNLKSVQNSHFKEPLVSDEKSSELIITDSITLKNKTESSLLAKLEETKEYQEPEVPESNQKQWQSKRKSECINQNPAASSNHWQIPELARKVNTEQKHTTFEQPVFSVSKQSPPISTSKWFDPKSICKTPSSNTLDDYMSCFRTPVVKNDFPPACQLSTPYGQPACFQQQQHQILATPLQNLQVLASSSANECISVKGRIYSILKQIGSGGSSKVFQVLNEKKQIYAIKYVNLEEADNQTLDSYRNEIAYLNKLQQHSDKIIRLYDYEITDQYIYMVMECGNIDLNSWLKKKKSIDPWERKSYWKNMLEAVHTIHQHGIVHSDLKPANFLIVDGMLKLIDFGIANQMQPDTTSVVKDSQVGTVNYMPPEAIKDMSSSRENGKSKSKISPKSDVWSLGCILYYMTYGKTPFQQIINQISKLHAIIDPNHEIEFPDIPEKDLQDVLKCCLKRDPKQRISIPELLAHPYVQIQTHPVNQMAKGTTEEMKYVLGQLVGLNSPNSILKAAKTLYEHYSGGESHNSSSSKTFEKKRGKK

As for `CCN1CCN(Cc2ccc(NC(=O)c3ccc(C)c(/C=C/c4cnc5[nH]ccc5c4OC)c3)cc2C(F)(F)F)CC1`, the inhibition in assay [1] worked out at 6.6%; in [2] it was 83.7%. In [3], this compound came in with a residual activity of 100%. The percent of control in assay [4] turned out to be 1.2%.
Regarding `CCN1CCN(Cc2ccc(NC(=O)c3ccc(C)c(Oc4ccnc5[nH]ccc45)c3)cc2C(F)(F)F)CC1`, the inhibition is 1.2% in [5], 17.2% in [7] and 2.5% in assay [8]. The inhibition entry in assay [6] is “inactive”. In assay [9], this compound had a residual activity of 24%.
Consider `CNc1cc(Oc2cc(C(=O)Nc3cc(N4CCN(C)CC4)cc(C(F)(F)F)c3)ccc2C)ncn1`, for which the inhibition is -6.9% in assay [10], 2% in [11], 31.6% in assay [12] and 20.3% in assay [13].
